Measurements published in paper PMC12713470, “Design and Synthesis of Novel Chalcone Derivatives Targeting Bladder and Liver Cancer: Cytotoxicity Evaluation and Preliminary Mechanistic Studies” (ACS Omega, 2025).

Tests used:
Assay type in all cases: cell-based, human
[1] = test system: T24 cells; assay: Clonogenic survival, T24; conditions: 18.50 μM (maximum concentration tested), 48 h treatment, 10 days colony formation
Procedure: (§1) The cells were cultured in DMEM (Sigma-Aldrich, St. Louis, USA) and supplemented with 10% fetal bovine serum (Cultilab Ltda., Campinas, Brazil) and antibiotics (amphotericin). They were incubated at 37 °C in a humidified atmosphere with 5% CO2. Control cell groups, which were not exposed to the compound, were included in the experiments and were conducted in triplicate. The chalcone was dissolved in dimethyl sulfoxide (DMSO) for the assays.
The cells were trypsinized and plated into 24-well plates at a density of 1.0 × 10^5 cells/mL. Afterward, they were treated with the chalcone at concentrations of 2.15, 4.62, 9.25, and 18.50 μM for 48 h. Following treatment, the cells were washed with Hanks’ solution and trypsinized again, and approximately 1000 cells were reseeded into 12-well plates. These cells were incubated for 10 days in a CO2 incubator to allow colony formation. After the incubation period, the culture medium was removed, and the cells were washed with Hanks’ solution. Fixation was performed using 4% formaldehyde for 20 min, followed by […] in 100% methanol for 20 min. The cells were then stained with a 0.5% crystal violet solution prepared in 25% methanol. […] Absorbance was measured at 570 nm using a spectrophotometer, and the results were expressed as the percentage of colonies formed relative to the untreated control group.

[2] = test system: T24 cells; assay: Cell migration (wound), T24; conditions: highest concentration tested, 48 h
Procedure: as §1
(§2) Cells were seeded in 24-well plates at a density of 1.0 × 10^5 cells per well and incubated for 24 h to allow attachment. After this incubation, a sterile 200 μL pipet tip was used to scrape the cell monolayer, creating a wound. The initial wound area was photographed using an inverted microscope equipped with a camera. Following this, the cells were washed with Hanks’ solution and treated with the glycosylated chalcone at concentrations of 2.15, 4.62, 9.25, and 18.50 μM for 48 h. At the end of the treatment period, the cells were photographed again, and migration into the wound area was assessed. The percentage of cell migration was quantified using ImageJ and GraphPad Prism software.

[3] = test system: HepG2 cells; assay: Cell migration (wound), HepG2; conditions: 4.62 and 9.25 μM, 48 h
Procedure: as §1, §2

With `CCCc1cc(/C=C/C(=O)c2ccc(C)cc2)c(OC)c(OC)c1` [compound 3, (E)-3-(2,3-Dimethoxy-5-propylphenyl)-1-(p-tolyl)-prop-2-en-1-one] the “colony formation, T24” value [1] was “significant effect was observed”, the “cell migration, T24” value [2] was “significant decrease was observed” and the “cell migration, HepG2” value [3] was “reduction of cell migration”.
